Columns and labels:
[1] = target: T1, PAR2 (HT-29 cells, SLIGKV activation) (Homo sapiens, UniProt P55085); test: Ca FLIPR TETRA assay, ANTAGONIST mode, stimulation with 8 μM SLIGKV; assay type: cell-based; conditions: HT-29 cells, antagonist mode, stimulation with 8 μM SLIGKV
T1 construct: host or cells: HT-29 cells
T1 sequence (P55085 26-397): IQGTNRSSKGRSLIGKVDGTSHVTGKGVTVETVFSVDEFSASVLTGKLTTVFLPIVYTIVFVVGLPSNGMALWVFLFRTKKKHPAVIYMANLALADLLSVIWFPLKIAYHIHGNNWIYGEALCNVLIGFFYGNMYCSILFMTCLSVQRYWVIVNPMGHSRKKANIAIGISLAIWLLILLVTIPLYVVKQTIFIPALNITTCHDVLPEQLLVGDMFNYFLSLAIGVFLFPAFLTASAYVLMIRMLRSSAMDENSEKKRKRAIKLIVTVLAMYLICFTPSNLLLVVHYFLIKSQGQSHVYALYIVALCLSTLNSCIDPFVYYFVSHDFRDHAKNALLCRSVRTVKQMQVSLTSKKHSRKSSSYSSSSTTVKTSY
Procedure, shortened: (§1)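 Intracellular calcium is measured by fluorescence in HT-29 cells loaded with calcium 5 reagent. Compounds sit on the cells 30 min at room temperature before challenge with trypsin (3.1 U/mL) or SLIGKV (8 μM) for PAR2, or with thrombin (1 U/mL) or UTP (0.6 μM) as counter-stimuli.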

[2] = target: T2, PAR2 (HT-29 cells, trypsin activation) (Homo sapiens, UniProt P55085); test: Ca FLIPR TETRA assay, ANTAGONIST mode, stimulation with 3.1 U/mL trypsin; assay type: cell-based; conditions: HT-29 cells, antagonist mode, stimulation with 3.1 U/mL trypsin
T2 construct: host or cells: HT-29 cells
T2 sequence (P55085 26-397): T1 sequence (P55085 26-397)
Procedure, shortened: as §1

[3] = tested on: Thrombin-stimulated Ca2+ response in HT-29 cells; test: Ca FLIPR TETRA assay, ANTAGONIST mode, stimulation with 1 U/mL Thrombin; assay type: cell-based, human; conditions: Homo sapiens; HT-29 cells, antagonist mode, stimulation with 1 U/mL Thrombin
Procedure, shortened: as §1

[4] = tested on: UTP-stimulated Ca2+ response in HT-29 cells; test: Ca FLIPR TETRA assay, ANTAGONIST mode, stimulation with 0.6 μM UTP; assay type: cell-based, human; conditions: Homo sapiens; HT-29 cells, antagonist mode, stimulation with 0.6 μM UTP
Procedure, shortened: as §1

| SMILES | IC50 [1] | IC50 [2] | IC50 [3] | IC50 [4] |
| --- | --- | --- | --- | --- |
| CC(C)c1cc(-c2ccc(F)cc2)nn2cc(C(=O)N3CCN(C(=O)c4ccnnc4)CC3(C)C)nc12 [Compound I-306] | 68 nM | 185 nM | > 1000 nM | > 1000 nM |
| CC(C)c1cc(-c2ccc(F)cc2)nn2cc(C(=O)N3CCN(C(=O)c4cccnn4)CC3(C)C)nc12 [Compound I-307] | 52.8 nM | 42 nM | > 1000 nM | > 1000 nM |
| CC(C)c1cc(-c2ccc(F)cc2)nn2cc(C(=O)N3CCN(C(=O)c4ccncc4)CC3(C)C)nc12 [Compound I-308] | 28 nM | 33.5 nM | > 1000 nM | > 1000 nM |
| CC(C)c1cc(-c2ccc(F)cc2)nn2cc(C(=O)N3CCN(C(=O)c4cccnc4)CC3(C)C)nc12 [Compound I-309] | 17.5 nM | 19 nM | > 1000 nM | > 1000 nM |
| Cc1nc[nH]c1C(=O)N1CCN(C(=O)c2cn3nc(-c4ccc(F)cc4)cc(C(C)(C)C)c3n2)C(C)(C)C1 [Compound I-311] | 6.8 nM | 4.1 nM | > 1000 nM | > 1000 nM |
| Cc1ncc(C(=O)N2CCN(C(=O)c3cn4nc(-c5ccc(F)cc5)cc(C(C)(C)C)c4n3)C(C)(C)C2)[nH]1 [Compound I-312] | 1.3 nM | 1.3 nM | > 1000 nM | > 1000 nM |
| CC(C)c1cc(-c2ccc(F)cc2)nn2cc(C(=O)N3CCN(C(=O)C(C)(O)C(F)(F)F)CC3(C)C)nc12 (stereo not drawn) [Compound I-313] | 15.2 nM | 11.4 nM | > 1000 nM | > 1000 nM |
| CC(C)c1cc(-c2ccc(F)cc2)nn2cc(C(=O)N3CCN(C(=O)C(C)(N)C(F)(F)F)CC3(C)C)nc12 (stereo not drawn) [Compound I-314] | 10.4 nM | 7.6 nM | > 1000 nM | > 1000 nM |
| CC(C)(C)c1cc(-c2ccc(F)cc2)nn2cc(C(=O)N3CCN(C(=O)C(C)(O)C(F)(F)F)CC3(C)C)nc12 (stereo not drawn) [Compound I-317] | 3.4 nM | 2.9 nM | > 1000 nM | > 1000 nM |
| CC(C)(C)c1cc(-c2ccc(F)cc2)nn2cc(C(=O)N3CCN(C(=O)C(C)(N)C(F)(F)F)CC3(C)C)nc12 (stereo not drawn) [Compound I-318] | 1.7 nM | 2.2 nM | > 1000 nM | > 1000 nM |
| CC(C)(C)c1cc(-c2ccc(F)cc2)nn2cc(C(=O)N3CCN(C(=O)[C@H]4C[C@@](C)(O)C4)CC3(C)C)nc12 [Compound I-319] | 0.4 nM | 0.6 nM | 760 nM | 950 nM |
| CC(C)c1cc(-c2ccc(F)cc2)nn2cc(C(=O)N3CCN(C(=O)c4ccccn4)CC3(C)C)nc12 [Compound I-320] | 7.1 nM | 14.2 nM | > 1000 nM | > 1000 nM |
| CC(C)c1cc(-c2ccc(F)cc2)nn2cc(C(=O)N3CCN(C(=O)c4ccon4)CC3(C)C)nc12 [Compound I-321] | 1.5 nM | 2.8 nM | > 1000 nM | > 1000 nM |
| CC(C)c1cc(-c2ccc(F)cc2)nn2cc(C(=O)N3CCN(C(=O)c4cncnc4)CC3(C)C)nc12 [Compound I-322] | 41.5 nM | 69 nM | > 1000 nM | > 1000 nM |
| CC(C)c1cc(-c2ccc(F)cc2)nn2cc(C(=O)N3CCN(C(=O)c4ncccn4)CC3(C)C)nc12 [Compound I-323] | 20.5 nM | 55.5 nM | > 1000 nM | > 1000 nM |
| Cc1nnc(C(=O)N2CCN(C(=O)c3cn4nc(-c5ccc(F)cc5)cc(C(C)C)c4n3)C(C)(C)C2)o1 [Compound I-324] | 21.1 nM | 22.5 nM | > 1000 nM | > 1000 nM |
| CC(F)(F)c1cc(-c2ccc(F)cc2)nn2cc(C(=O)N3CCNC(=O)C3(C)C)nc12 [Compound I-325] | 55.5 nM | 110 nM | > 1000 nM | > 1000 nM |
| CC(C)c1cc(-c2ccc(F)cc2)nn2cc(C(=O)N3CCN(C(=O)c4c[nH]cn4)CC3(C)C)nc12 [Compound I-326] | 17 nM | 12 nM | > 1000 nM | > 1000 nM |
| CC(C)c1cc(-c2ccc(F)cc2)nn2cc(C(=O)N3CCN(C(=O)c4cn[nH]c4)CC3(C)C)nc12 [Compound I-327] | 5.6 nM | 5.9 nM | > 1000 nM | > 1000 nM |
| Cc1cc(-c2cc(C(C)(C)C)c3nc(C(=O)N4CCNC(=O)C4(C)C)cn3n2)ccc1F [Compound I-329] | 5.9 nM | 2.8 nM | > 1000 nM | > 1000 nM |

| SMILES | IC50 [1] | IC50 [2] | IC50 [3] | IC50 [4] |
| --- | --- | --- | --- | --- |
| Cc1ccc(-c2cc(C(C)C)c3nc(C(=O)N4CCN(C(=O)c5cc(C)n[nH]5)CC4(C)C)cn3n2)cc1 [Compound I-330] | 1.7 nM | 1.4 nM | > 1000 nM | > 1000 nM |
| Cc1ccc(-c2cc(C(C)C)c3nc(C(=O)N4CCN(C(=O)c5nc[nH]n5)CC4(C)C)cn3n2)cc1 [Compound I-331] | 11.4 nM | 6.9 nM | > 1000 nM | > 1000 nM |
| Cc1ccc(-c2cc(C(C)C)c3nc(C(=O)N4CCN(C(=O)c5nnc(C)o5)CC4(C)C)cn3n2)cc1 [Compound I-332] | 13.3 nM | 11.5 nM | > 1000 nM | > 1000 nM |
| Cc1ccc(-c2cc(C(C)C)c3nc(C(=O)N4CCN(C(=O)C5CC(C)(O)C5)CC4(C)C)cn3n2)cc1 (stereo not drawn) [Compound I-333] | 3.2 nM | 3.8 nM | > 1000 nM | > 1000 nM |
| Cc1ccc(-c2cc(C(C)C)c3nc(C(=O)N4CCN(C(=O)c5nc(C)n[nH]5)CC4(C)C)cn3n2)cc1 [Compound I-334] | 4.6 nM | 4.8 nM | > 1000 nM | > 1000 nM |
| Cc1cc(C(=O)N2CCN(C(=O)c3cn4nc(-c5ccc(C)c(F)c5)cc(C(C)C)c4n3)C(C)(C)C2)[nH]n1 [Compound I-335] | 0.8 nM | 0.6 nM | > 1000 nM | > 1000 nM |
| Cc1ccc(-c2cc(C(C)C)c3nc(C(=O)N4CCN(C(=O)c5nc[nH]n5)CC4(C)C)cn3n2)cc1F [Compound I-336] | 5 nM | 2.8 nM | > 1000 nM | > 1000 nM |
| Cc1nnc(C(=O)N2CCN(C(=O)c3cn4nc(-c5ccc(C)c(F)c5)cc(C(C)C)c4n3)C(C)(C)C2)o1 [Compound I-337] | 5.4 nM | 4.5 nM | > 1000 nM | > 1000 nM |
| Cc1ccc(-c2cc(C(C)C)c3nc(C(=O)N4CCN(C(=O)C5CC(C)(O)C5)CC4(C)C)cn3n2)cc1F (stereo not drawn) [Compound I-338] | 2.2 nM | 1.6 nM | > 1000 nM | > 1000 nM |
| Cc1n[nH]c(C(=O)N2CCN(C(=O)c3cn4nc(-c5ccc(C)c(F)c5)cc(C(C)C)c4n3)C(C)(C)C2)n1 [Compound I-339] | 1.9 nM | 1.9 nM | > 1000 nM | > 1000 nM |
| Cc1c[nH]c(C(=O)N2CCN(C(=O)c3cn4nc(-c5ccc(F)cc5)cc(C(C)(C)C)c4n3)C(C)(C)C2)n1 [Compound I-340] | 1.5 nM | 1.6 nM | > 1000 nM | > 1000 nM |
| Cc1cc(C(=O)N2CCN(C(=O)c3cn4nc(-c5ccc(F)c(C)c5)cc(C(C)C)c4n3)C(C)(C)C2)[nH]n1 [Compound I-341] | 2.1 nM | 1.7 nM | > 1000 nM | > 1000 nM |
| Cc1cc(-c2cc(C(C)C)c3nc(C(=O)N4CCN(C(=O)c5nc[nH]n5)CC4(C)C)cn3n2)ccc1F [Compound I-342] | 12.6 nM | 8.2 nM | > 1000 nM | > 1000 nM |
| Cc1nnc(C(=O)N2CCN(C(=O)c3cn4nc(-c5ccc(F)c(C)c5)cc(C(C)C)c4n3)C(C)(C)C2)o1 [Compound I-344] | 15.4 nM | 15.8 nM | > 1000 nM | > 1000 nM |
| Cc1n[nH]c(C(=O)N2CCN(C(=O)c3cn4nc(-c5ccc(F)c(C)c5)cc(C(C)C)c4n3)C(C)(C)C2)n1 [Compound I-345] | 5.6 nM | 6.2 nM | > 1000 nM | > 1000 nM |
| Cc1ccc(-c2cc(C(C)(C)C)c3nc(C(=O)N4CCNC(=O)C4(C)C)cn3n2)cc1 [Compound I-347] | 2.9 nM | 2.3 nM | > 1000 nM | > 1000 nM |
| CC(C)(C)c1cc(-c2ccccc2)nn2cc(C(=O)N3CCNC(=O)C3(C)C)nc12 [Compound I-348] | 4 nM | 5.1 nM | 673 nM | 360 nM |
| CC(C)(C)c1cc(-c2ccc(C(F)F)cc2)nn2cc(C(=O)N3CCNC(=O)C3(C)C)nc12 [Compound I-349] | 3 nM | 2.6 nM | > 1000 nM | > 1000 nM |
| Cc1cccc(-c2cc(C(C)(C)C)c3nc(C(=O)N4CCNC(=O)C4(C)C)cn3n2)c1 [Compound I-350] | 12.9 nM | 13.7 nM | > 1000 nM | > 1000 nM |
